Measurements published in PMC11220654, “A Frog Skin‐Derived Peptide Targeting SCD1 Exerts Radioprotective Effects Against Skin Injury by Inhibiting STING‐Mediated Inflammation” (Advanced Science, 2024).
Residues, ends and D or L forms follow the SMILES beside them. No end group written: not given here. *: point of attachment. Cbz = O=C(OCc1ccccc1)*

Experiments:
[1] = system: TBK1 in HaCaT cells; assay: TBK1 protein level and ubiquitination (Western blotting, IP); assay type: cell-based, human
Description: Here, we further explored whether and how RIFSP‐2 decreased the protein level of TBK1 in HaCaT cells. […] Since the degradation of TBK1 protein was reported to be regulated by either ubiquitination mediated proteasome pathway^[ [33] ^] or chaperone‐mediated autophagy signaling,^[ [34] ^] we testified the influence of the protein synthesis inhibitor (CHX) and the proteasome inhibitor (MG132) in RIFSP‐2 treated HaCaT cells. […] Then we analyzed the colocalization of TBK1 and lysosomes through confocal immunofluorescence microscopy assays. Although, administration of RIFSP‐2 induced a transient decrease of TBK1 fluorescence intensity (Figure S5K,L, Supporting Information), the co‐localization assays didn't support the increase of TBK1 location in lysosomes in RIFSP‐2 treated HaCaT cells (Figure S5M, Supporting Information).
Fig. S5 Influence of RIFSP-2 on STING activation and TBK1 expression in HaCaT […]
Communities classified based on the association network of the different metabolites in irradiated cells treated with or without RIFSP -2. (B) Structural character analysis of the lipid metabolites in irradiated cells treated with or without RIFSP -2. (C) Dose dependent induction of phosphorylation of STING and downstream TBK1 detected through western blotting. […] (M) Pearson correlation coefficient was calculated through Image J to explore the colocalization between TBK1 and […]

[2] = system: WS1 cells; assay: Intracellular uptake of FITC-labeled peptides (confocal microscopy, flow cytometry); assay type: cell-based
Description: (§1) Distinct from previous reports, the RIFSPs were obtained from skin tissue crude extracts but not from skin secretions. In addition, the administration of exogenous RIFSPs protected cultured skin cells, which hints that some RIFSPs may exert membrane permeability. Therefore, we synthesized FITC‐labeled RIFSPs‐2/5/9/10 and evaluated their possible intracellular uptake by skin cells. […] Glycosaminoglycans have been reported to affect the efficiency of cellular uptake of a wide range of cell penetrating peptides,^[ [27] ^] and we therefore used the competitive inhibitor heparin to investigate whether internalization of FITC‐RIFSP‐2 was dependent on recognition by glycosaminoglycans on the cell surface.
After forming electrostatic interactions with the plasma membrane, peptides principally penetrate into cells via macropinocytosis.^[ [28] ^] […]
(A) Administration of FITC-labeled RIFSPs to WS1 cells and identification of the membrane […] of RIFSP-2 through confocal microscopy. (B)Time- and dose-dependent uptake of FITC-RIFSP-2 by WS1 cells detected through confocal microscopy and flow cytometry analysis. […] Conditioned medium from WS1 cells pretreated with RIFSP-2 increased MMP of irradiated HaCaT cells and vice versa, detected by JC-1(G and H) and Mito-Tracker Red CMXRos (I) staining (n = 4, ** P < 0.01).

[3] = system: skin tissues of mice; conditions: mouse, in vivo, sc
[4] = system: HaCaT cells; assay: Intracellular uptake of FITC-labeled peptides (confocal microscopy, flow cytometry); assay type: cell-based
Description: as §1
Figure 2 Macropinocytosis‐mediated uptake of radiation‐induced frog skin peptide 2 (RIFSP‐2) protects skin cells against radiation‐induced injury. […] B) Time‐ and dose‐dependent uptake of FITC‐RIFSP‐2 by HaCaT cells detected through flow cytometry analysis. […] The effect of RIFSP‐2 on D) cell proliferation, E) cell cycle, and F,G) senescence, as detected by colony formation assay, propidium iodide (PI) staining and SA‐β‐Gal staining analysis, respectively. […] M) Effect of RIFSP‐2 on the homeostasis of actin filaments in irradiated skin cells, as detected by rhodamine phalloidin and G‐actin staining assays. […]

[5] = system: STING signaling in HaCaT cells; assay: STING downstream signals and inflammatory factors with LPC (18:1) (Western blotting, ELISA); assay type: cell-based, human
Procedure: Since RIFSP‐2 directly restrained SCD1 and modulated neutral lipid droplets, we further investigated whether alteration of lipid profiles by RIFSP‐2 interfered with STING activation in response to irradiation. […] Furthermore, we investigated the influence of RIFSP‐2 on STING‐regulated inflammatory factors, including IFN‐β, TNF‐α, IL‐1, and IL‐6. […] Nevertheless, significant increase of IFN‐β production in acute stage and TNF‐α production in relative late stage (48 h) in macrophage cells were detected through both Western blotting and ELISA assays (Figure 4F,G).
2.6 Protein-protein interaction analysis
The identified databases of specific binding proteins for RIFSP-2 and STING in irradiated skin cells were merged and the confidence score of interactions >0.7 were regarded as high confidence in alinement of STRING database. Finally, the visualization of this protein-protein interaction was realized through the Cytoscape software.
2.7 Assessment of cytokines by Elisa
HaCaT and RAW264.7 cells were cultivated in 6 cm plates at a density of 5 × 10^5 cells/mL with 2 mL medium per well and treated with LPC (18:1) plus RIFSP-2 for 24 h. 6 or 48 h after irradiation, cytokine concentrations in the […] were measured by ELISA according to the instructions provided by the manufacturer (NEOBIOSCIENCE). The absorbance was detected using a BioTek reader (Synergy HTX, Winooski, USA) at 450 nm. […]

CCN(CC)CCCC(C)Nc1ccnc2cc(Cl)ccc12 (stereo not drawn) [CQ, chloroquine]
influence on TBK1 degradation caused by RIFSP-2 ([1]; 10 nM chloroquine 4 hours, then 15 µM RIFSP-2 24 hours): little influence of lysosomes in TBK1 degradation

C=C1[C@@H](C)[C@H]2[C@H](Cc3ccccc3)NC(=O)[C@]23[C@H](OC(C)=O)/C=C/[C@@](C)(O)C(=O)[C@@H](C)C/C=C/[C@H]3[C@@H]1O [CytD, cytochalasin D]
effect on WS1 cells ([2]; after CytD administration in the uptake study): swelled and subsequently died in 30 min

CC(C)C[C@@H](C=O)NC(=O)[C@H](CC(C)C)NC(=O)[C@H](CC(C)C)NC(=O)OCc1ccccc1 [MG132] (Cbz-Leu-Leu-Leu-aldehyde)
influence on the reduction of TBK1 protein level by RIFSP-2 ([1]; 24 h after RIFSP-2 treatment (15 µM), MG132 10 µM pretreated 2 hours): abrogated the reduction of TBK1 protein level

LAAGGYDVDKNNSRLK [RIFSP‐2]
time at which the FITC signal could be detected [2]: as soon as one hour after administration | adverse effects [3]: did not cause obvious adverse effects | histological examination of the skin tissues [3]: no significant differences | uptake in HaCaT cells [4]: time‐ and dose‐dependent manner

LPC (18:1)
accumulation of TGF-β, TNF-α, IL-1 and IL-6 ([5]; keratinocytes but not macrophage cells, Western blotting): aggravated the accumulation | phosphorylation of STING and TBK1 ([5]; supplementation, dose-dependent manner (Figure S5C)): elevated the phosphorylation of both STING and its substrate TBK1
